Test results published in patent publication US20190000860A1, “USE OF COMPOSITIONS MODULATING CHROMATIN STRUCTURE FOR GRAFT VERSUS HOST DISEASE (GVHD)” (Dana-Farber Cancer Institute, Inc., priority 2014, published 2019).

Tests used:
mice with cGVHD [1] = format: in vivo; conditions: for survival after 60 days: mice given BM and T-cells, treatment began 28 days post-transplant (Day 28-56), JQ5 or UNC1999 75 mg/Kg 3 days a week, Bcl6 peptidomimetic every day (Table 3, FIG. 8)
Description: B10.BR recipients were conditioned with cytoxan on days −3 and −2 (120 mg/kg/day i.p.). On day −1, recipients received TBI by x-ray (8.3 Gy). B6 donor BM was T-cell depleted with anti-Thy1.2 mAb followed by rabbit complement. T-cells were purified from spleens by incubation with biotin-labeled anti-CD19, anti-CD11b, anti-CD11c, anti-NK1.1 and anti-γδTCR (eBioscience), followed by strepavidin beads and depletion with magnetic column (StemCell Technologies). On day 0, recipients received 10×10^6 T cell depleted BM cells with or without allogeneic spleen purified T cells (0.075-0.1×106), Weights of individual mice were recorded weekly. Where indicated, recipients in BM and T cell groups were given EZH2 inhibitor (either JQ-EZH2-5 ([…]) or JQ1 (50 μg/animal/Daily) in 10% Hydroxypropyl-beta-cyclodextrin and DMSO in a 9:[…]) in PBS.
Animals in this experiment were transplanted with wild-type BM and T-cells and then treated with either Vehicle, EZH2 inhibitor (JQ5 or UNC1999) or Bcl6 inhibitor. Administration of UNC1999 was toxic, resulting in less than 40% survival 63 days post-transplant. (FIG. 8).

mice with cGVHD [2] = test: Collagen deposition in the lungs (trichrome staining); format: in vivo, mouse (B10.BR recipients); conditions: for collagen deposition in the lungs vs Vehicle-treated mice: Table 3 experiment, treatment Day 28-56, JQ5 75 mg/Kg 3 days a week, Bcl6 peptidomimetic every day (FIG. 10, 13)
Description: (§1) B10.BR recipients were conditioned with cytoxan on days −3 and −2 (120 mg/kg/day i.p.). On day −1, recipients received TBI by x-ray (8.3 Gy). B6 donor BM was T-cell depleted with anti-Thy1.2 mAb followed by rabbit complement. T-cells were purified from spleens by incubation with biotin-labeled anti-CD19, anti-CD11b, anti-CD11c, anti-NK1.1 and anti-γδTCR (eBioscience), followed by strepavidin beads and depletion with magnetic column (StemCell Technologies). On day 0, recipients received 10×10^6 T cell depleted BM cells with or without allogeneic spleen purified T cells (0.075-0.1×106), Weights of individual mice were recorded weekly. Where indicated, recipients in BM and T cell groups were given EZH2 inhibitor (either JQ-EZH2-5 (75 μg/animal/3 times a week) or JQ1 (50 μg/animal/Daily) in 10% Hydroxypropyl-beta-cyclodextrin and DMSO in a 9:[…]) in PBS.
(§2) In particular, B10.BR mice were conditioned with 120 mg/Kg of cyclophosphamide on day −3 and −2 and subjected to total body irradiation (830X) on day −1. On Day 0 mice were transplanted with wild type B6 bone marrow with or without splenocytes or purified splenic T cells. Day 28 following transplantation, mice were either given vehicle control or JQ5 (75 mg/Kg 3× a week) until day 56. On Day 60 mice were subjected to forced oscillation technique on the Scireq Flexivent system. Tissues were harvested and analyzed for collagen deposition by trichrome staining, Ig deposition, presence of germinal centers, germinal center B cells, and T follicular helper cells.
as §2, with “Pulmonary function tests were performed on animals treated with Bcl 79-6. The presence of Germinal Center B cells and fibrosis in lungs were also assessed.” for “In particular,”, “Wild Type” for “wild type”, “Bone” for “bone”, “Bcl6 79-6 (50” for “JQ5 (75”, “Daily)” for “3× a week)”, “cells” for “cells,”

mice with cGVHD [3] = test: Pulmonary function tests (lung resistance, elastance, compliance; forced oscillation technique, Scireq Flexivent); format: in vivo, mouse (B10.BR recipients)
Description: B10.BR recipients were conditioned with cytoxan on days −3 and −2 (120 mg/kg/day i.p.). On day −1, recipients received TBI by x-ray (8.3 Gy). B6 donor BM was T-cell depleted with anti-Thy1.2 mAb followed by rabbit complement. T-cells were purified from spleens by incubation with biotin-labeled anti-CD19, anti-CD11b, anti-CD11c, anti-NK1.1 and anti-γδTCR (eBioscience), followed by strepavidin beads and depletion with magnetic column (StemCell Technologies). On day 0, recipients received 10×10^6 T cell depleted BM cells with or without allogeneic spleen purified T cells (0.075-0.1×106), Weights of individual mice were recorded weekly. Where indicated, recipients in BM and T cell groups were given EZH2 inhibitor (either JQ-EZH2-5 (75 μg/animal/3 times a week) or JQ1 (50 μg/animal/Daily) in 10% Hydroxypropyl-beta-cyclodextrin and DMSO in a 9:1 ratio) or Bcl 79-6 (50 μg/animal/three times a week) in PBS.
as §2
as §2, with “Pulmonary function tests were performed on animals treated with Bcl 79-6. The presence of Germinal Center B cells and fibrosis in lungs were also assessed.” for “In particular,”, “Wild Type” for “wild type”, “Bone” for “bone”, “Bcl6 79-6 (50” for “JQ5 (75”, “Daily)” for “3× a week)”, “cells” for “cells,”

germinal center B cells = test: Germinal center B cells in cGVHD mice; format: in vivo, mouse (B10.BR recipients); conditions: for germinal center B cells in the spleens: Table 3 experiment, Bcl6 peptidomimetic every day, Day 28-56 (FIG. 12)
Description: as §1, §2
Pulmonary function tests were performed on animals treated with Bcl 79-6. The presence of Germinal Center B cells and fibrosis in lungs were also assessed. B10.BR mice were conditioned with 120 mg/Kg of cyclophosphamide on day −3 and −2 and subjected to total body irradiation (830X) on day −1. […] Tissues were harvested and analyzed for collagen deposition by trichrome staining, Ig deposition, presence of germinal centers, germinal center B cells and T follicular helper cells.

mice with cGVHD [4] = test: Pulmonary function tests (lung resistance, elastance, compliance; forced oscillation technique, Scireq Flexivent); format: in vivo, mouse (B10.BR recipients); remark: listed apart in the source
[5] = Table 6 experiment, Bcl6 79-6 50 mg/Kg Daily, day 28 until day 56 (FIG. 19), 50 mg/kg
[6] = Table 6 experiment, Bcl6 79-6 50 mg/Kg Daily, day 28 until day 56, measured Day 60 (FIG. 19)
[7] = additional experiments (not shown), JQ1 treatment

Structure (SMILES)	survival after 60 days (mice with cGVHD [1]) [%]	collagen deposition in the lungs vs Vehicle-treated mice (mice with cGVHD [2])	collagen deposition in the lungs vs Vehicle-treated mice (mice with cGVHD [2]; listed as Bcl6 79-6)	collagen in Trichrome staining (lungs) (mice with cGVHD [2]; [5])	pulmonary function (lung resistance, elastance and compliance) vs Vehicle-treated mice (mice with cGVHD [3]; Table 3 experiment, treatment Day 28-56, JQ5 75 mg/Kg 3 days a week, Bcl6 peptidomimetic every day (FIG. 9, 11))	germinal center B cells in the spleens (germinal center B cells)	germinal center B cells in the spleens (germinal center B cells; listed as Bcl6 79-6)	Germinal Center B cells (germinal center B cells; [5])	lung compliance (mice with cGVHD [4]; [6])	lung elastance (mice with cGVHD [4]; [6])	lung resistance (mice with cGVHD [4]; [6])	pulmonary function (mice with cGVHD [4]; [6])	collagen deposition in the lungs vs Vehicle-treated control mice (mice with cGVHD [2]; Table 4 experiment, JQ1 50 mg/Kg Daily, Day 28-56 (FIG. 15), 50 mg/kg)	compliance in pulmonary function tests vs vehicle-treated control animals (mice with cGVHD [3]; [7])	elastance in pulmonary function tests vs vehicle-treated control animals (mice with cGVHD [3]; [7])	resistance in pulmonary function tests vs vehicle-treated control animals (mice with cGVHD [3]; [7])	pulmonary function vs Vehicle-treated control mice (mice with cGVHD [4]; Table 4 experiment, JQ1 50 mg/Kg Daily, Day 28-56 (FIG. 14), 50 mg/kg)	survival 63 days post-transplant (mice with cGVHD [1]; mice given wild-type BM and T-cells, 75 mg/KG UNC1999 3 days a week, Day 28-56 (Table 3, FIG. 8))
O=C(O)CC(C(=O)O)N1C(=O)/C(=C2/C(=O)Nc3ccc(Br)cc32)SC1=S (stereo not shown) [79-6]	100	decreased	decreased collagen deposition	decreased collagen	improved pulmonary function	reduction	decreased germinal center B cells	decreased Germinal Center B cells	increase	decrease	decrease	Restored pulmonary function						
Cc1sc2c(c1C)C(c1ccc(Cl)cc1)=N[C@@H](CC(=O)OC(C)(C)C)c1nnc(C)n1-2 [JQ1]													decreased collagen deposition	significantly increased	decreased	decreased	improves pulmonary function	
CCCc1cc(C)[nH]c(=O)c1CNC(=O)c1cc(-c2ccc(N3CCN(C(C)C)CC3)nc2)cc2c1cnn2C(C)C [UNC1999]	< 40																	less than 40%
